Each structure is given as a SMILES string.

Data on six compounds can be found in patent US20250236617A1, “BICYCLIC TETRAHYDROTHIAZEPINE DERIVATIVES” (Hoffmann-La Roche Inc., priority 2022, published 2025).

For test [1], the target named is DGKzeta (hDGKzeta(1-928)-N-His) (Homo sapiens (Human), UniProt Q13574). Put plainly: In vitro DGK inhibition assay, ADP-Glo (in house), DGKzeta. It is filed as biochemical. Particulars: DLG liposomes, 50 μM ATP, 2 nM enzyme, 1 hour reaction. Here is the method:
(§1) DGK α and ζ kinases use ATP to phosphorylate the substrate 1,2-dilauroyl-sn-glycerol (DLG, incorporated in the liposomes). ATP is converted to ADP as a result of this enzymatic reaction.
(§2) After the kinase reaction, an ATP-depletion reagent is added to terminate the kinase reaction and deplete any remaining ATP, leaving only ADP. Second, a detection reagent is added to simultaneously convert ADP to ATP and allow the newly synthesized ATP to be converted to light using a coupled luciferase/luciferin reaction.
(§3) Purification of both enzymes was performed as previously described by Takahashi et al., PeerJ, 2018 (Takahashi, D.; Sakane, F. Expression and purification of human diacylglycerol kinase alpha from baculovirus-infected insect cells for structural studies. PeerJ 2018, 6, No. e5449).
(§4) A concentrated liposome solution was prepared in assay buffer without DTT and BSA: 2 mM of DLG in 21 mM of total liposome (2 mM DLG/8 mM PS/11 mM PC). The reaction mixtures contain the assay buffer with a final DLG concentration of 125 uM ATP concentrations of 25 μM (for DGKA assay) or 50 μM (for DGKZ assay). The reactions were started by addition of DGK α and ζ kinases at 4 nM and 2 nM final concentrations, respectively. After 1 hour reaction, the amount of ADP formed was detected with the ADP-Glo kinase assay (Promega) according to the manufacturer instructions. Compounds were added in 11-points dose response, starting at […], 1:3 dilutions, with a final DMSO concentration of 2%. The multidrop combi was used as a liquid handler and luminescence was read with 0.5 s by the envision reader (PE).
For orientation: In ADP-Glo the light output rises with the ADP produced.

Test [2] has as its system primary human T-cells. As to the kind of experiment: IL2 secretion measurements in CD3-stimulated T-cells. It is filed as cell-based. Particulars: CD3 condition; for Emax IL2 (% activation): 24 hours, 20 μM reference compound A1 = 100%; for EC50: Homo sapiens, T-cell, IL2 secretion after 24 hours, read-out: Tcell IL2 CD3 EC50. On the procedure:
As readouts for T-cell activation, 1L2 secretion after 24 hours and proliferation after 5 days was measured. Increases in 1L2 secretion and proliferation upon compound treatment were assessed as the % of the maximum of reference compound A1. WO 2016/139181 discloses reference compound A1 as example 70. As a counter screen and to make sure that no unwanted TCR-independent activation was triggered, PBS conditions were run for all compounds.
Expanded primary human T-cells were thawed and cultured in RPMI 1640 (Gibco, #61870-010)+5% human serum (HS, Sigma, #H3667)+1 mM Sodium Pyruvate (Gibco, #11360-039)+50 μM 2-mercaptoethanol (Gibco, #31350-010) and 1× Pen-Strep (Life Technologies, #15140122) medium at density of 2 Mio/ml for 3 hours in 5% CO2, 37° C. and 95% humidity. For coating of plates, […] or PBS++ with CD3 antibody (concentration depending on donor and determined by CD3 titrations) was added 100 μl/well to Poly-D Lysine coated 96-well plates. Plates were sealed and incubated at room temperature for 3 hours on a table-top rocking platform. After incubation, plates were washed once with PBS−− and filled with 40 μl/well culture medium only. Compounds were then added (see next section) to medium only plates. After 3 hours of culturing the T-cells, cells were filtered through a cell strainer (Miltenyi Biotech, #130-041-407), counted again and concentration was adjusted to 1.25 Mio/ml.
Cells were then seeded 80 μl/well to the 40 μl/well including dispensed compounds according to plate layout. By adding cells, compounds were further diluted 1:3, and resulting in 100 k cells/120 μl/well. After 24 hours 40 μl of supernatant was collected carefully from the top while not disturbing the cells and transferred into a round bottom 96 well plate. Collected and frozen supernatant was used for detection of IL2 using the IL-2 Human ProQuantum Immunoassay Kit (Invitrogen) or using the Human IL-2 ELISA Kit (Thermo Fisher).
Compounds were added in a 5 or 6 pt dose response with the Tecan D300e Digital Dispenser, all conditions 3 times more concentrated than the end-concentration, since cells are added afterwards (80 μl cells to 40 μl prepared medium with treatment). The DR was starting at 20 μM or 10 μM final top concentration and a dilution factor of 3.333. The positive control was the reference compound A1 that was added in a dose response as well, additionally to 3 wells of only 20 μM representing the positive stimulator control. All wells were normalized with DMSO to a final concentration of 0.6% (0.2% end-concentration).
The immunoassay is done following the manufacturer's manual (Invitrogen, #A35603). Additional information: For the immunoassay, MicroAmp™ EnduraPlate™ Optical 384-Well plates are used. Frozen supernatant is thawed and centrifuged for 5 minutes at 1000×g, both steps at 4° C. After centrifugation, required sample amount is taken from the top, and in a separate LightCycler V-bottom plate (working plate) diluted with assay dilution buffer, dilution factor depending on the PBS or CD3 condition but at least 1:3. IL-2 standard and blanks are prepared in the same V-bottom plate, standard with a range of […] (extended version). After preparation, 5 μl of sample dilutions or standard/blanks are transferred to the optical 384-well plate (assay plate) and the 10 μl reaction protocol is being followed. For measurement, the QuantStudio 12K Flex system is used. Raw data is extracted and IL-2 concentrations are calculated with the Thermo Fisher online app (apps.thermofisher.com/apps/proquantum).
ELISA is done following the manufacturer's manual (Thermo Fisher Scientific, #88-7025-88). Additional information: For the ELISA Nunc MaxiSorp 96 well plates are used. Frozen supernatant is thawed and centrifuged for 5 minutes at 1000×g, both steps at 4° C. […]

Test [3] deals with DGKalpha (hDGKalpha(1-735)-N-His) (Homo sapiens (Human), UniProt P23743). Put plainly: In vitro DGK inhibition assay, ADP-Glo (in house), DGKalpha. It is filed as biochemical. To be noted: DLG liposomes, 25 μM ATP, 4 nM enzyme, 1 hour reaction. Here is the method:
as §1, §2, §3, §4

In test [4] the test system is primary human T-cells. As to the kind of experiment: T-cell proliferation assay (CellTiter-Glo). It is filed as cell-based. Particulars: CD3 condition; for Emax proliferation (% activation): 5 days, 20 μM reference compound A1 = 100%; for EC50: Homo sapiens, T-cell, 120 h, proliferation after 5 days, CellTiter-Glo, read-out: Tcell Proliferation CD3 EC50. On the procedure:
For coating of plates, PBS++ only or PBS++ with CD3 antibody (concentration depending on donor and determined by CD3 titrations) is added 100 μl/well to Poly-D Lysine coated 96-well plates. Plates are sealed and incubated at room temperature for 3 hours on a table-top rocking platform. After incubation, plates are washed once with PBS−− and filled with 40 μl/well culture medium only. Compounds are then added (see next section) to medium only plates. After 3 hours of culturing the T-cells, cells are filtered through a cell strainer (Miltenyi Biotech, #130-041-407), counted again and concentration is adjusted to 1.25 Mio/ml.
Cells are then seeded 80 μl/well to the 40 μl/well including dispensed compounds according to plate layout. By adding cells, compounds are further diluted 1:3, and resulting in 100 k cells/120 μl/well. After 48 hours 40 μl of supernatant is collected carefully from the top while not disturbing the cells. Cells are assessed for proliferation 5 days later by measuring […] using CellTiterGlo (Promega).
Compounds were added in a 5 or 6 pt dose response with the Tecan D300e Digital Dispenser, all conditions 3 times more concentrated than the end-concentration, since cells are added afterwards (80 μl cells to 40 μl prepared medium with treatment). […] The positive control was the reference compound A1 that was added in a dose response as well, additionally to 3 wells of only 20 μM representing the positive stimulator control. All wells were normalized with DMSO to a final concentration of 0.6% (0.2% end-concentration).
After 5 days, for detection of ATP which is directly proportional to the number of cells present per well, the CellTiter-Glo® 2.0 Reagent is used. After visual control for toxicity or precipitations of the tested compounds, the plates are equilibrated to room temperature for 45 minutes. CellTiter-Glo® 2.0 Reagent is equilibrated to room temperature as well. After equilibration, an equal amount of CellTiter-Glo reagent is added to the cells (80 μl/well) with an electronic multichannel pipette. Plates are placed on a rocking platform for 15 minutes at room temperature. After incubation, the bottom of the plates is sealed with backing tape. Luminescence is measured with PHERAstar FSX (interval time 0.5 sec, gain 3000, focal height 15 mm) and exported as CSV file for analysis in Genedata screener.
Calculations and Data Reporting CD3 and PBS plates were analysed separately in Genedata Screener using Roche Normalization PCT_POS_CTRL with DMSO set as Neutral Control and 20 μM of the reference compound A1 set as Stimulator Control/100%.
For CD3 conditions EC50 and Emax of the fitted sigmoidal curve were reported. If no curve could be fitted, the EC50 was reported as blank field and the Emax was based on individual data points. […] Compounds which activate unstimulated cells (see IL2 measurements) or compounds which negatively affected viability were flagged.
Background: Cellular ATP, detected with luciferase, serves as a proxy for viable cell number.

Chain of DGKalpha (hDGKalpha(1-735)-N-His) (P23743 whole entry): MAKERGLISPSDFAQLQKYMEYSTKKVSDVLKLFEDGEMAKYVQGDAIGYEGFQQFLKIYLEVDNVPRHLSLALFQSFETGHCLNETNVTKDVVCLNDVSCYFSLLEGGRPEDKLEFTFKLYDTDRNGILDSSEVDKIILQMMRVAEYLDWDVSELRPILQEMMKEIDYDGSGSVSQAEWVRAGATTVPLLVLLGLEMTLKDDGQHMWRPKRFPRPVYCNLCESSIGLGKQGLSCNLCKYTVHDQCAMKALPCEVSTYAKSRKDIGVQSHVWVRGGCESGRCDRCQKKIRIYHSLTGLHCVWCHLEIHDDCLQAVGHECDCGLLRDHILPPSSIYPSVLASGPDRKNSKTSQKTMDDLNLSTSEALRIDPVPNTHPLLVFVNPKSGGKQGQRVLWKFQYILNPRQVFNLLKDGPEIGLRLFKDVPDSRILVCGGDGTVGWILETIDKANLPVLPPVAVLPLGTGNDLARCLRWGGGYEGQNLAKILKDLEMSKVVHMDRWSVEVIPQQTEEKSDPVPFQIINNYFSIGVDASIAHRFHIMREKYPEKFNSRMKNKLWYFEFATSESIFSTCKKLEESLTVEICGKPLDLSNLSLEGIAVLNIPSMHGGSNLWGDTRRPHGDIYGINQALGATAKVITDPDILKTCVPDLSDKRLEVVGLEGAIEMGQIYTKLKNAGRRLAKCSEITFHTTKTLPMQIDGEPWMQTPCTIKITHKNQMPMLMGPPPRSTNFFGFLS
Chain of DGKzeta (hDGKzeta(1-928)-N-His) (Q13574 whole entry): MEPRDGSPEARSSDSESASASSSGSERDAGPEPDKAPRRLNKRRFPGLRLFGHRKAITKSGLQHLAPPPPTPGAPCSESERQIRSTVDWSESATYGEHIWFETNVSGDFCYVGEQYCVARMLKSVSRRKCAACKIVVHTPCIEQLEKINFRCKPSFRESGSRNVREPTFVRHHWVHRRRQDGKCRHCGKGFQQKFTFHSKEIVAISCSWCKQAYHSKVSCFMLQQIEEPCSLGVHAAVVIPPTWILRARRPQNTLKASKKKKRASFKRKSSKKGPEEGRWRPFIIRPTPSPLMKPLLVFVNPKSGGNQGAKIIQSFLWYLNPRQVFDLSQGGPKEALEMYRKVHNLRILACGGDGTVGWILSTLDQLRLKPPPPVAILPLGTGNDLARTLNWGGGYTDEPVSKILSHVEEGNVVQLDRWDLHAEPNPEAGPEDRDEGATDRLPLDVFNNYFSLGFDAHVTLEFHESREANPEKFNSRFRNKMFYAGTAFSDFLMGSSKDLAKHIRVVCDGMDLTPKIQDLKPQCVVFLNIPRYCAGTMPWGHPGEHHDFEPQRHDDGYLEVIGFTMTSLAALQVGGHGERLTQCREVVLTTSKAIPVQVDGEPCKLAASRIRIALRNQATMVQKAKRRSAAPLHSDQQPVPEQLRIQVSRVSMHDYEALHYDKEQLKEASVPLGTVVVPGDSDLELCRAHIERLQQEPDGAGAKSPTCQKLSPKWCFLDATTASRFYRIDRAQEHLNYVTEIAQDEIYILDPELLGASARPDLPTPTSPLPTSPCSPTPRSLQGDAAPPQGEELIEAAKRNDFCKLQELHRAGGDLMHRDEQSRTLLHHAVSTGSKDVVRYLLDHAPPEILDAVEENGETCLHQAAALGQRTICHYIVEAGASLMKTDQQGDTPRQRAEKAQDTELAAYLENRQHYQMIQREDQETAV

One may read the IC50 as the concentration needed to halve the response being measured. A lower IC50 goes with greater potency in that assay. As for `COC(=O)N1CC2CC(c3cnnc(-c4cc5c(cc4F)S(=O)(=O)C[C@H](N)C(=O)N5Cc4ccc(Cl)cc4)n3)(C2)C1` [Example 18, methyl 1-[3-[(3R)-3-amino-5-[(4-chlorophenyl)methyl]-8-fluoro-1,1,4-trioxo-2,3-dihydro-1λ6,5-benzothiazepin-7-yl]-1,2,4-triazin-5-yl]-3-azabicyclo[3.1.1]heptane-3-carboxylate], the IC50 in test [1] is 1.13 µM. Also, in the test on primary human T-cells [2], the “Emax IL2 (% activation)” value came to 61 % activation and the EC50 came to 1.83 µM. For the same compound, the IC50 in test [3] stood at 4.59 µM. Also, in the test on primary human T-cells [4], the “Emax proliferation (% activation)” value is 79 % activation and the EC50 was 2.72 µM.

On to `CS(=O)(=O)C(CCCl)c1cnnc(-c2cc3c(cc2F)S(=O)(=O)C[C@H](N)C(=O)N3Cc2ccc(Cl)cc2)n1` (stereo partly drawn) [Example 20, (3R)-3-amino-7-[5-(3-chloro-1-methylsulfonyl-propyl)-1,2,4-triazin-3-yl]-5-[(4-chlorophenyl)methyl]-8-fluoro-1,1-dioxo-2,3-dihydro-1λ6,5-benzothiazepin-4-one], for which the IC50 in test [1] was found to be 1.73 µM; in test [3], 1.66 µM. In addition, in the test with primary human T-cells [2], the “Emax IL2 (% activation)” value is listed as 39 % activation. The EC50 is greater than 10 µM with primary human T-cells [2] and 9.11 µM in the test with primary human T-cells [4]. Further, the “Emax proliferation (% activation)” value in the test with primary human T-cells [4] came to 87 % activation.

For `N[C@H]1CS(=O)(=O)c2cc(F)c(-c3cncc(N4CCOCC4)c3)cc2N(Cc2ccc(-c3noc(C(F)(F)F)n3)cc2)C1=O` [Example 21, (3R)-3-amino-8-fluoro-1,1-diketo-7-(5-morpholino-3-pyridyl)-5-[4-[5-(trifluoromethyl)-1,2,4-oxadiazol-3-yl]benzyl]-2,3-dihydro-1λ6,5-benzothiazepin-4-one], in test [1], inhibition was half-maximal at 8.77 µM (IC50). In addition, in the test on primary human T-cells [2], the “Emax IL2 (% activation)” value was found to be 131 % activation and the EC50 worked out at 6.78 µM. The compound also gave an IC50 in test [3] of 31 µM. Moreover, in the test on primary human T-cells [4], the “Emax proliferation (% activation)” value was 140 % activation and the EC50 came to 3.76 µM.

`N[C@H]1CS(=O)(=O)c2cc(F)c(-c3cncc(C(F)(F)F)c3)cc2N(Cc2ccc(-c3noc(C(F)(F)F)n3)cc2)C1=O` [Example 24, (3R)-3-amino-8-fluoro-1,1-diketo-5-[4-[5-(trifluoromethyl)-1,2,4-oxadiazol-3-yl]benzyl]-7-[5-(trifluoromethyl)-3-pyridyl]-2,3-dihydro-1λ6,5-benzothiazepin-4-one] displayed an IC50 in test [1] of 23.7 µM. In the test with primary human T-cells [2], the “Emax IL2 (% activation)” value amounted to 235 % activation and the EC50 is 1.94 µM. Further, 55.2 µM corresponded to half-maximal inhibition in test [3] (IC50). For the same compound, in the test with primary human T-cells [4], the “Emax proliferation (% activation)” value was found to be 141 % activation and the EC50 came to 0.699 µM.

`COc1ccc(-c2ccc(CN3C(=O)[C@@H](N)CS(=O)(=O)c4cc(F)c(-c5cncc(Cl)c5)cc43)cc2)cc1` [Example 27, (3R)-3-amino-7-(5-chloro-3-pyridyl)-8-fluoro-5-[[4-(4-methoxyphenyl)phenyl]methyl]-1,1-dioxo-2,3-dihydro-1λ6,5-benzothiazepin-4-one]: in test [1], the IC50 amounted to 6.5 µM. Moreover, in the test with primary human T-cells [2], the “Emax IL2 (% activation)” value was 243 % activation and the EC50 is 0.997 µM. In addition, 41.2 µM corresponded to half-maximal inhibition in test [3] (IC50). Besides, in the test on primary human T-cells [4], the “Emax proliferation (% activation)” value turned out to be 111 % activation and the EC50 came to 0.308 µM.

For the compound `COc1ccc(-c2ccc(CN3C(=O)[C@@H](N)CS(=O)(=O)c4cc(F)c(-c5ccc(C(C)C)nc5)cc43)cc2)cc1` [Example 29, (3R)-3-amino-8-fluoro-7-(6-isopropyl-3-pyridyl)-5-[[4-(4-methoxyphenyl)phenyl]methyl]-1,1-dioxo-2,3-dihydro-1λ6,5-benzothiazepin-4-one], half-maximal inhibition in test [1] (IC50) required 13.6 µM. Moreover, in the test on primary human T-cells [2], the “Emax IL2 (% activation)” value turned out to be 110 % activation and the EC50 was determined as 0.453 µM. This compound came in with an IC50 in test [3] of 18.8 µM. For the same compound, in the test on primary human T-cells [4], the “Emax proliferation (% activation)” value worked out at 38 % activation and the EC50 was 0.071 µM.
